Data taken from US11254640B2, “N-substituted indoles and other heterocycles for treating brain disorders” (The Regents of the University of California, priority 2019, dated 2022).
pEC50: −log10 of the molar value. Entries after “also recorded” stand apart in the source; their conditions may differ. Counter-ions that a name gives are not always drawn.

test system: 5HT2A sensor; assay: 5HT2A sensor assay, agonist mode (sLight1.3s HEK293T stable line); type: cell-based; settings: 100 nM compound; percent relative to 5-HT at 100 uM
Method in brief: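 Fluorescence change, dFF=(Fsat−Fapo)/Fapo, was taken from membrane images (460 nm excitation) before and after compound addition and scaled as % activation, with the DMSO mean as 0 and the 5HT mean as 100. The cells were sLight1.3s HEK293T in HBSS. Final compound levels were 100 μM, 10 μM and 100 nM in 0.1% DMSO, in triplicate.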

SMILES | 5HT2A Agonist mean @ 100 nM (%)
COc1ccc2c(ccn2CCN2CC3(COC3)C2)c1 [Example 84, 6-(2-(5-methoxy-1H-indol-1-yl)ethyl)-2-oxa-6-azaspiro[3.3]heptane] | B (does not activate 5HT2A sensor assay in agonist mode)

same assay, conditions: 10 μM compound; percent relative to 5-HT at 100 uM

SMILES | 5HT2A Agonist mean @ 10 μM (%)
COc1ccc2c(ccn2CCN2CC3(COC3)C2)c1 [Example 84, 6-(2-(5-methoxy-1H-indol-1-yl)ethyl)-2-oxa-6-azaspiro[3.3]heptane] | B (does not activate 5HT2A sensor assay in agonist mode)

same assay, conditions: 100 μM compound; percent relative to 5-HT at 100 uM

SMILES | 5HT2A Agonist mean @ 100 μM (%)
COc1ccc2c(ccn2CCN2CC3(COC3)C2)c1 [Example 84, 6-(2-(5-methoxy-1H-indol-1-yl)ethyl)-2-oxa-6-azaspiro[3.3]heptane] | A (activates 5HT2A sensor assay in agonist mode)

test system: 5HT2A sensor; assay: 5HT2A sensor assay, antagonist mode (sLight1.3s HEK293T stable line); type: cell-based; settings: 100 nM compound; relative to 5-HT at 100 nM
Method in brief: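 Inactivation score is computed from membrane dFF as (dFF(compound+5HT)−dFF(5HT))/dFF(5HT), with HBSS-only fluorescence as Fapo. Final concentrations: 5-HT 100 nM added first, then compound at 100 nM, 10 μM or 100 μM in 0.1% DMSO. Triplicates; FITC imaging, 5 fields per well.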

SMILES | 5HT2A Antagonist mean @ 100 nM (%)
COc1ccc2c(ccn2CCN2CC3(COC3)C2)c1 [Example 84, 6-(2-(5-methoxy-1H-indol-1-yl)ethyl)-2-oxa-6-azaspiro[3.3]heptane] | B (inhibits 5HT response by 75% to 100%)

same assay, conditions: 10 μM compound; relative to 5-HT at 100 nM

SMILES | 5HT2A Antagonist mean @ 10 μM (%)
COc1ccc2c(ccn2CCN2CC3(COC3)C2)c1 [Example 84, 6-(2-(5-methoxy-1H-indol-1-yl)ethyl)-2-oxa-6-azaspiro[3.3]heptane] | B (inhibits 5HT response by 75% to 100%)

same assay, conditions: 100 μM compound; relative to 5-HT at 100 nM

SMILES | 5HT2A Antagonist mean @ 100 μM (%)
COc1ccc2c(ccn2CCN2CC3(COC3)C2)c1 [Example 84, 6-(2-(5-methoxy-1H-indol-1-yl)ethyl)-2-oxa-6-azaspiro[3.3]heptane] | B (inhibits 5HT response by 75% to 100%)

molecular target: T1, 5HT2A (Homo sapiens, UniProt P28223); assay: Calcium flux assay (Calcium secondary messenger pathway); type: cell-based; settings: agonist mode
T1 construct: expressed in transfected cells
Method in brief: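 Gq-coupled calcium mobilization in cells stably expressing 5HT2A, loaded 30–60 min at 37 °C with calcium-sensitive dye in HBSS/20 mM Hepes with 2.5 mM probenecid. Compound added 5 s into a 2-min FLIPR Tetra fluorescence read at room temperature; % activity relative to vehicle and maximal control-ligand RFU.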

T1 sequence (P28223 whole entry): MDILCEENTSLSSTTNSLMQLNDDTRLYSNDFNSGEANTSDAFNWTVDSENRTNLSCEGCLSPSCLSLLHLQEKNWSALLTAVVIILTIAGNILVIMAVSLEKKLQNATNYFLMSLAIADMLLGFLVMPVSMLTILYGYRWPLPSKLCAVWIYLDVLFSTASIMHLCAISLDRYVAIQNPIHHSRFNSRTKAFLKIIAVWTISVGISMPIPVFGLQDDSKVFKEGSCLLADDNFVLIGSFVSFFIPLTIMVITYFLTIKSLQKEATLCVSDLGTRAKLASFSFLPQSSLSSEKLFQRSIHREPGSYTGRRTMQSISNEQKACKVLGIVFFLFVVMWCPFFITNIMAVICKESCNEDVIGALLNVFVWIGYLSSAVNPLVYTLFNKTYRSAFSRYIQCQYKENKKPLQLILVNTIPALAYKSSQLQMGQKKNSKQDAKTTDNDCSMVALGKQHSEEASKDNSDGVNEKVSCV

SMILES | pEC50
COc1ccc2c(ccn2CCN2CC3(COC3)C2)c1 [Example 84, 6-(2-(5-methoxy-1H-indol-1-yl)ethyl)-2-oxa-6-azaspiro[3.3]heptane] | < 5.00

test system: rat cortical neurons; assay: Neurite outgrowth assay; type: cell-based; settings: Cortical neurone, 1 hour treatment at DIV 4, analysed DIV 7, fold vs DMSO control, read-out: Neurite Average Length @ 10 μM
Method in brief: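 Embryonic day 18 rat cortical neurons, 20,000 cells/well in Neurobasal/B27, were exposed at DIV 4 to 10 μM compound for 1 hour, then washed out. At DIV 7, β-III-tubulin immunostaining and automated imaging gave neurite length, branch points, root and extremity counts, reported as fold-change versus DMSO; triplicates.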

SMILES | fold induction at 10 µM
COc1ccc2c(ccn2CCN2CC3(COC3)C2)c1 [Example 84, 6-(2-(5-methoxy-1H-indol-1-yl)ethyl)-2-oxa-6-azaspiro[3.3]heptane] | 1.5 to 3

same assay, conditions: Cortical neurone, 1 hour treatment at DIV 4, analysed DIV 7, fold vs DMSO control, read-out: Neurite Branch Points: @ 10 μM

SMILES | fold induction at 10 µM
COc1ccc2c(ccn2CCN2CC3(COC3)C2)c1 [Example 84, 6-(2-(5-methoxy-1H-indol-1-yl)ethyl)-2-oxa-6-azaspiro[3.3]heptane] | 1.5 to 3

test system: cortical neurons; assay: Dendritogenesis assay, Sholl analysis; type: cell-based, rat; settings: Rattus norvegicus, Cortical neurone; 10 μM; Nmax with vehicle (DMSO) = 0% and ketamine = 100%; read-out: % efficacy in sholls
Source text: Dendritogenesis Assays. Phenotypic screening has historically proven more successful than target-based approaches for identifying drugs with novel mechanisms of action. Having established a simple and robust method for accessing isoDMT analogs, tested next was their ability to increase dendritic arbor complexity in cultures of cortical neurons using a phenotypic assay. Following treatment, neurons were fixed and visualized using an antibody against MAP2—a cytoskeletal protein localized to the somatodendritic compartment of neurons. Sholl analysis was then performed, and the maximum number of crossings (Nmax) was used as a quantitative metric of dendritic arbor complexity. For statistical comparisons between specific compounds, the raw Nmax values were compared. Percent efficacies were determined by setting the Nmax values for the vehicle (DMSO) and positive (ketamine) controls equal to 0% and 100%, respectively.
Animals. For the dendritogenesis experiments, timed pregnant Sprague Dawley rats were obtained from Charles River Laboratories (Wilmington, Mass.). For the head-twitch response assay, male and female C57BL/6J mice were obtained from Jackson Laboratory (Sacramento, Calif.). Mice were housed in a temperature and humidity-controlled room maintained on a 12-h light/dark cycle in groups of 4-5 (same sex). Animals weighed between 17 and 30 g at the time of the experiments. All experimental procedures involving rodents were approved by the UC Davis Institutional Animal Care and Use Committee (IACUC) and adhered to principles described in the National Institutes of Health Guide for the Care and Use of Laboratory Animals. The University of California, Davis and the University of California, San Francisco are accredited by the Association for Assessment and Accreditation of Laboratory Animal Care International (AAALAC).
Dendritogenesis—Sholl Analysis. Dendritogenesis experiments were performed following a previously published method with slight modifications. Neurons were plated in 96-well format (200 μL of media per well) at a density of approximately 15,000 cells/well in Neurobasal (Life Technologies) containing 1% penicillin-streptomycin, 10% heat-inactivated fetal bovine serum, and 0.5 mM glutamine. After 24 h, the medium was replaced with Neurobasal containing 1× B27 supplement (Life Technologies), 1% penicillin-streptomycin, 0.5 mM glutamine, and 12.5 μM glutamate. After 3 days in vitro (DIV3), the cells were treated with compounds. All compounds tested in the dendritogenesis assays were treated at 10 μM unless noted otherwise. Stock solutions of the compounds in DMSO were first diluted 100-fold in Neurobasal before an additional 10-fold dilution into each well (total dilution=1:1000; 0.1% DMSO concentration). Treatments were randomized. After 1 h, the media was removed and replaced with new Neurobasal media containing 1× B27 supplement, 1% penicillin-streptomycin, 0.5 mM glutamine, and 12.5 μM glutamate. The cells were allowed to grow for an additional 71 h. At that time, neurons were fixed by removing 80% of the media and replacing it with a volume of 4% aqueous paraformaldehyde (Alfa Aesar) equal to 50% of the working volume of the well. Then, the cells were incubated at room temperature for 20 min before the fixative was aspirated and each well washed twice with DPBS. Cells were permeabilized using 0.2% Triton X-100 (ThermoFisher) in DPBS for 20 minutes at room temperature without shaking. Plates were blocked with antibody diluting buffer (ADB) containing 2% bovine serum albumin (BSA) in DPBS for 1 h at room temperature. Then, plates were incubated overnight at 4° C. with gentle shaking in ADB containing a chicken anti-MAP2 antibody (1:10,000; EnCor, CPCA-MAP2). The next day, plates were washed three times with DPBS and once with 2% ADB in DPBS. […]

SMILES | Emax at 10 µM [%]
CN(C)CCn1ccc2ccccc21.O=C(O)/C=C/C(=O)O [Example 2, 2-(1H-indol-1-yl)-N,N-dimethylethan-1-amine] | 87
CN(C)CCn1ccc2ccc(F)cc21.O=C(O)/C=C/C(=O)O [Example 14, 2-(6-fluoro-1H-indol-1-yl)-N,N-dimethylethan-1-amine] | 88
Cc1cc2ccccc2n1CCN(C)C.O=C(O)/C=C/C(=O)O [Example 16, N,N-dimethyl-2-(2-methyl-1H-indol-1-yl)ethan-1-amine] | 104
CN(C)CCn1ccc2ccc([N+](=O)[O-])cc21.O=C(O)/C=C/C(=O)O [Example 19, N,N-dimethyl-2-(6-nitro-1H-indol-1-yl)ethan-1-amine] | 85
CN(C)CCn1ccc2cc(Br)ccc21.O=C(O)/C=C/C(=O)O [Example 20, 2-(5-bromo-1H-indol-1-yl)-N,N-dimethylethan-1-amine] | 117
CN(C)CCn1cnc2ccccc21.O=C(O)/C=C/C(=O)O [Example 22, 2-(1H-benzo[d]imidazol-1-yl)-N,N-dimethylethan-1-amine] | 50
CN(C)CCn1c2ccccc2c2ccccc21.O=C(O)/C=C/C(=O)O [Example 24, 2-(9H-carbazol-9-yl)-N,N-dimethylethan-1-amine] | 86
CN(C)CCCn1ccc2ccccc21.O=C(O)/C=C/C(=O)O [Example 26, 3-(1H-indol-1-yl)-N,N-dimethylpropan-1-amine] | 70

same assay, conditions: concentrations ranging from 10 μM to 10 pM (FIG. 6)

SMILES | psychoplastogenic efficacy and potency, concentration-response (Nmax)
CN(C)CCn1ccc2ccccc21.O=C(O)/C=C/C(=O)O [Example 2, 2-(1H-indol-1-yl)-N,N-dimethylethan-1-amine] | comparable maximum efficacies and had similar potencies as isosteric DMTs (1 and 28)

same assay, conditions: cortical neurons, 10 μM

SMILES | dendritic arbor complexity / neuronal growth (Nmax of Sholl plots)
CN(C)CCn1ccc2ccccc21.O=C(O)/C=C/C(=O)O [Example 2, 2-(1H-indol-1-yl)-N,N-dimethylethan-1-amine] | increase dendritic arbor complexity to a comparable extent as DMT (1); also recorded: increased dendritic arbor complexity to a comparable extent as 1
Cc1cc2ccccc2n1CCN(C)C.O=C(O)/C=C/C(=O)O [Example 16, N,N-dimethyl-2-(2-methyl-1H-indol-1-yl)ethan-1-amine] | well tolerated
CN(C)CCn1cnc2ccccc21.O=C(O)/C=C/C(=O)O [Example 22, 2-(1H-benzo[d]imidazol-1-yl)-N,N-dimethylethan-1-amine] | minimal effect on the ability of these molecules to promote neuronal growth
CN(C)CCn1c2ccccc2c2ccccc21.O=C(O)/C=C/C(=O)O [Example 24, 2-(9H-carbazol-9-yl)-N,N-dimethylethan-1-amine] | minimal effect on the ability of these molecules to promote neuronal growth
CN(C)CCCn1ccc2ccccc21.O=C(O)/C=C/C(=O)O [Example 26, 3-(1H-indol-1-yl)-N,N-dimethylpropan-1-amine] | only a slight decrease in the Nmax value
CN(C)C(=O)Cn1ccc2ccccc21 [Example 31, 2-(1H-indol-1-yl)-N,N-dimethylacetamide] | did not promote neuronal growth

test system: not given; assay: not given; settings: not given

SMILES | melting point [°C]
CN(C)CCn1ccc2c(OCc3ccccc3)cccc21 (as salt: fumarate) [Example 8, 2-(4-(benzyloxy)-1H-indol-1-yl)-N,N-dimethylethan-1-amine] | 145 to 150
CN(C)CCn1ccc2cc(OCc3ccccc3)ccc21 (as salt: fumarate) [Example 9, 2-(5-(benzyloxy)-1H-indol-1-yl)-N,N-dimethylethan-1-amine] | 133 to 135
CN(C)CCn1ccc2c(F)cccc21 (as salt: fumarate) [Example 12, 2-(4-fluoro-1H-indol-1-yl)-N,N-dimethylethan-1-amine] | 145 to 149
CN(C)CCn1ccc2cc(F)ccc21 (as salt: fumarate) [Example 13, 2-(5-fluoro-1H-indol-1-yl)-N,N-dimethylethan-1-amine] | 145 to 148
CN(C)CCn1ccc2cccc(F)c21 (as salt: fumarate) [Example 15, 2-(7-fluoro-1H-indol-1-yl)-N,N-dimethylethan-1-amine] | 168 to 170
CN(C)CCn1ccc2cc(F)c(F)cc21 (as salt: fumarate) [Example 17, 2-(5,6-difluoro-1H-indol-1-yl)-N,N-dimethylethan-1-amine] | 162 to 165
CN(C)CCn1ccc2c(F)cc(F)cc21 (as salt: fumarate) [Example 18, 2-(4,6-difluoro-1H-indol-1-yl)-N,N-dimethylethan-1-amine] | 141 to 145
CN(C)CCn1cccc1 (as salt: fumarate) [Example 23, N,N-dimethyl-2-(1H-pyrrol-1-yl)ethan-1-amine] | 174 to 180
CN(C)CCc1cn(C)c2ccccc12 (as salt: fumarate) [Example 27, N,N-dimethyl-2-(1-methyl-1H-indol-3-yl)ethan-1-amine] | 167 to 170
CN(C)CCn1ccc2ccccc21.O=C(O)/C=C/C(=O)O [Example 2, 2-(1H-indol-1-yl)-N,N-dimethylethan-1-amine] | 147 to 149
CN(C)CCn1ccc2ccc(F)cc21.O=C(O)/C=C/C(=O)O [Example 14, 2-(6-fluoro-1H-indol-1-yl)-N,N-dimethylethan-1-amine] | 141 to 147
Cc1cc2ccccc2n1CCN(C)C.O=C(O)/C=C/C(=O)O [Example 16, N,N-dimethyl-2-(2-methyl-1H-indol-1-yl)ethan-1-amine] | 131 to 133
CN(C)CCn1ccc2ccc([N+](=O)[O-])cc21.O=C(O)/C=C/C(=O)O [Example 19, N,N-dimethyl-2-(6-nitro-1H-indol-1-yl)ethan-1-amine] | 159 to 164
CN(C)CCn1ccc2cc(Br)ccc21.O=C(O)/C=C/C(=O)O [Example 20, 2-(5-bromo-1H-indol-1-yl)-N,N-dimethylethan-1-amine] | 140 to 142
CN(C)CCn1cnc2ccccc21.O=C(O)/C=C/C(=O)O [Example 22, 2-(1H-benzo[d]imidazol-1-yl)-N,N-dimethylethan-1-amine] | 171 to 178
CN(C)CCn1c2ccccc2c2ccccc21.O=C(O)/C=C/C(=O)O [Example 24, 2-(9H-carbazol-9-yl)-N,N-dimethylethan-1-amine] | 182 to 184
CN(C)CCCn1ccc2ccccc21.O=C(O)/C=C/C(=O)O [Example 26, 3-(1H-indol-1-yl)-N,N-dimethylpropan-1-amine] | 129 to 131
CN(C)C(=O)Cn1ccc2ccccc21 [Example 31, 2-(1H-indol-1-yl)-N,N-dimethylacetamide] | 58 to 61
